Measured values reported in ChEMBL document CHEMBL1158879, “Preparation of 7-Alkoxylated Furanopyrones: Semisynthesis of ()-Etharvensin, a New Styryl-Lactone from Goniothalamus arvensis” (J Nat Prod, 1997).
The source made the active and inactive calls. The calls are words filed in the database; no cut-off is given here.

How the values were obtained:
Aorta [1] = assay: Inhibition of noradrenaline-induced contractile response in rat aorta at 100 uM in presence of calcium; assay type: functional, tissue-based
Aorta [2] = assay: Inhibition of noradrenaline-induced contractile response in rat aorta in absence of calcium; assay type: functional, tissue-based

Row | IC50 (Aorta [2]) | Structure (SMILES) | Activity (Aorta [1])
1 |  | CCO[C@@H]1CC(=O)O[C@H]2[C@H](O)[C@@H](c3ccccc3)O[C@H]21 | inactive
2 | 78 µM | O=C1C=C[C@@H]2O[C@H](c3ccccc3)[C@@H](O)[C@@H]2O1 [ALTHOLACTONE] | inactive
3 | 80 µM | O=C1CC[C@@H]2O[C@H](c3ccccc3)[C@@H](O)[C@@H]2O1 [GONIOTHARVENSIN] | inactive
